Results on 4 compounds are retold here after US11730712B2, “Functionalized long-chain hydrocarbon mono- and di-carboxylic acids and derivatives thereof, and their use for the prevention or treatment of disease” (ESPERVITA THERAPEUTICS, INC., priority 2021, dated 2023).

Several values for one entry are separate records, joined by “and”; a condition that tells them apart may be missing. Equal values may be shown once. Read-outs that look alike come from different tables or passages of the source.

One assay relates to Hep3B cells. Briefly: Drug interaction (combination) in Hep3B cell proliferation. Type of assay: cell-based. The procedure: FIGS. 41A-41B show drug interaction effect of Compound I-32 (FIG. 41A) and Compound I-1 (FIG. 41B) in combination with regorafenib in Hep3B cell proliferation. In FIG. 41A, “1+0.015 (μM)” means 1 μM Compound I-32+0.015 μM regorafenib, etc. In FIG. 41B, “1+0.015 (μM)” means 1 μM Compound I-1+0.015 μM regorafenib, etc.
In FIG. 44A, “1+0.03 (μM)” means 1 μM Compound I-1+0.03 μM sorafenib, etc. […] In FIG. 44B, “1+0.005 (μM)” means 1 μM Compound I-1+0.005 μM lenvatinib, etc. […] In FIG. 44C, “1+0.03 (μM)” means 1 μM Compound I-32+0.03 μM sorafenib, etc. […] In FIG. 44D, “1+0.005 (μM)” means 1 μM Compound I-32+0.005 μM lenvatinib, etc.

In assay [1] the test system is C57BL6J mice on high fat high fructose diet. Briefly: Hepatic de novo lipogenesis (14C-glucose incorporation) in murine model of NASH. The assay is classed as in vivo, mouse. Conditions: for inhibition at 10 mg/kg / inhibition at 30 mg/kg / inhibition at 60 mg/kg: Mus musculus. The procedure:
Experimental Protocol. FIG. 17A describes the study protocol. Mice were dosed daily for 7 days with a single dose of either Compound I-32 or Compound I-1 at a dose of 10 mg/kg, 30 mg/kg or 60 mg/kg. On the 8th day of the experiment mice receive final dose of Compound I-32 or Compound I-1, followed one hour later by an I.P. bolus of 14-C Glucose.
C57BL6J (8 weeks of age) were obtained for the Jackson Laboratory and fed a normal chow diet upon arrival. At ˜10 weeks of age, mice were given a diet containing high fat and high fructose (Rodent Diet with 40 kcal % Fat (Mostly Palm Oil), 20 kcal % fructose, and 0.02% cholesterol, obtained from Research Diets, Product Code: D19101102) and housed at thermoneutral conditions (26-29° C.). […] On the morning of day 8, animals received a final dose and after 1 hour […] (PerkinElmer) was administered at a concentration of 12 μCi per mouse in a volume of 0.1 ml in 0.9% saline I.P. One hour after ^14C-glucose was given, animals were anesthetized by I.P. injection of Ketamine/Xylazine (150 mg/12.4 mg/kg, respectively). Blood was drawn through cardiac puncture; the liver was removed, and a sample was from the left lobe and frozen in liquid nitrogen. Liver tissue was chipped on dry-ice and the weight of the chip weight recorded (30-50 mg of tissue). Liver tissue was homogenized in 1 ml of 2:1 chloroform:methanol using a bead homogenizer at 5000 rpm for 2×12 seconds. Samples were incubated with gentle shaking at 4° C. for 2 hours, vortexed for 2×12 seconds, and then centrifuge at 7000 rpm for 10 minutes at 4° C. The supernatant was transferred to a 1.5 ml Eppendorf and 200 μl of 0.9% saline was added. Samples were vortexed for 2×12 seconds and centrifuged at 3000 rpm for 10 minutes at 4° C. 200 μl of the lower organic phase was removed and added to 5 ml of scintillation fluid. The amount radioactivity in the sample was measured by scintillation counting. The number of disintegrations per minute (DPM) were determined over a 5-minute period and normalized to the amount of liver tissue. 5-10 μl of plasma obtained at termination was also counted and lipid/gram tissue counts were normalized to plasma counts. Statistical comparisons were carried out using a one-way ANOVA followed by Dunnett's post hoc test using GraphPad Prism 8 software. A p-value of less than or equal to 0.05 was used as the criterion of significance.

Another assay has as its target T1, human ACLY (Homo sapiens, UniProt P53396).
T1 construct: human ACLY (P533%) (Met 1-Met 1101) expressed in Baculovirus-Insect Cells; purchased Sino Biological Inc. 11769-H07B; host or cells: Baculovirus-Insect Cells
Briefly: ATP-citrate lyase (ACLY) enzymatic assay (ADP-Glo). The assay is classed as biochemical. Conditions: recombinant human ACLY, Run 1-3, read-out: Compound IC50 (M) ACLY. The procedure:
ATP citrate lyase was obtained from Sino Biological Inc. Cat #11769-H07B, Lot #LC08DE1701. It was prepared from a DNA sequence encoding the human ACLY (P533%) (Met 1-Met 1101) expressed in Baculovirus-Insect Cells, with a polyhistidine tag at the N-terminus. The recombinant human ACLY consists of 1120 amino acids and has a calculated molecular mass of 123 kDa. It migrates as an approximately 110 kDa band in SDS-PAGE under reducing conditions. The enzyme came as a lyophilized powder in sterile 20 mM Tris, 500 mM NaCl, pH 8.0, 10% glycine. Normally 5%-8% trehalose and mannitol are added as protectants before lyophilization. […]
To detect ADP produced from ACL assay, the ADP-Glo™ assay format from Promega, Madison, Wis., was used, to detect the conversion of ATP to ADP. […] This assay is performed in two steps: i) after the ACL-mediated enzymatic reaction that utilizes ATP and produces ADP, ADP-Glo™ Reagent is added to terminate the kinase reaction and deplete the remaining ATP, and ii) the Kinase Detection Reagent is added to convert ADP to ATP and allow the newly synthesized ATP to be measured using a luciferase/luciferin reaction. The light generated, measured in a luminometer, correlates to the amount of ADP generated in the ACL assay, which is indicative of ACL activity. […]

[2] abbreviates: 10 mg/kg, read-out: % change from vehicle control, hepatic de novo lipogenesis (inhibition).
The mark [3] stands for this setting: 30 mg/kg, read-out: % change from vehicle control, hepatic de novo lipogenesis (inhibition).
[4] abbreviates: 60 mg/kg, read-out: % change from vehicle control, hepatic de novo lipogenesis (inhibition).

For the compound `CC(C)(CCCCc1ccc(CCCCC(C)(C)C(=O)O)cc1)C(=O)O` [Compound I-1, 6-[4-(5-carboxy-5-methylhexyl)-phenyl]-2,2-dimethylhexanoic acid], the “drug interaction effect in combination with lenvatinib” value with Hep3B cells (at various concentrations) is reported as “synergism”. In addition, the “drug interaction effect in combination with sorafenib” value in the assay on Hep3B cells (at various concentrations) is on record as “synergism”. Moreover, the “% change from vehicle control, hepatic de novo lipogenesis (inhibition)” value came to 55.65% in assay [1] (30 mg/kg) and 68.96% in assay [1] (60 mg/kg). For the same compound, in assay [1] (setting [2]), the inhibition at 10 mg/kg was 17.8%. In addition, the inhibition at 30 mg/kg in assay [1] (setting [3]) came out at 56%. For the same compound, the inhibition at 60 mg/kg in assay [1] (setting [4]) worked out at 69%.
In the case of `CC(C)(CCCCc1cccc(CCCCC(C)(C)C(=O)SCCNC(=O)CCNC(=O)[C@H](O)C(C)(C)COP(=O)(O)OP(=O)(O)OC[C@H]2O[C@@H](n3cnc4c(N)ncnc43)[C@H](O)[C@@H]2OP(=O)(O)O)c1)C(=O)O` [Compound I-32-CoA, 6-[3-(5-Carboxy-5-methylhexyl)-phenyl]-2,2-dimethylhexanoic acid Coenzyme A Ester], the IC50 on human ACLY was 9.88e-07 M and 1.22e-06 M and 1.44e-06 M.
The same measure, in the same setting: then `CC(C)(CCCCc1ccc(CCCCC(C)(C)C(=O)SCCNC(=O)CCNC(=O)[C@H](O)C(C)(C)COP(=O)(O)OP(=O)(O)OC[C@H]2O[C@@H](n3cnc4c(N)ncnc43)[C@H](O)[C@@H]2OP(=O)(O)O)cc1)C(=O)O` [Compound I-1-CoA, 6-[4-(5-carboxy-5-methylhexyl)-phenyl]-2,2-dimethylhexanoic acid Coenzyme A ester], with 3.34e-06 M and 2.28e-06 M and 2.5e-06 M.
With `CC(C)(CCCCc1cccc(CCCCC(C)(C)C(=O)O)c1)C(=O)O` [Compound I-32, 6-[3-(5-carboxy-5-methylhexyl)-phenyl]-2,2-dimethylhexanoic acid], in the assay on Hep3B cells (at all tested concentrations), the “drug interaction effect in combination with sorafenib” value is “synergism”. For the same compound, in the assay with Hep3B cells (at various concentrations), the “drug interaction effect in combination with lenvatinib” value is “synergism”. Moreover, the results for the “% change from vehicle control, hepatic de novo lipogenesis (inhibition)” value in assay [1] (10 mg/kg), in assay [1] (30 mg/kg) and in assay [1] (60 mg/kg) were 48.79%, 37.42% and 52.90%, respectively. The inhibition at 10 mg/kg in assay [1] (10 mg/kg, 30 mg/kg and 100 mg/kg, all three doses tested (as printed in text), read-out: inhibition of liver lipogenesis) is around 50%; in assay [1] (setting [2]) it was 49%. Besides, in assay [1] (setting [3]), the inhibition at 30 mg/kg is 37%. Also, the inhibition at 60 mg/kg in assay [1] (setting [4]) was 53%.
